Results from ChEMBL document CHEMBL1157539, “Thousands of chemical starting points for antimalarial lead identification” (Nature, 2010).

System: Plasmodium falciparum
Assay: GSK_TCMDC: Inhibition of Plasmodium falciparum 3D7 in whole erythrocytes, using parasite LDH activity as an index of growth.
Assay type: functional, organism-based
Settings: Plasmodium falciparum, 3D7

Row | SMILES | XC50 [nM]
1 | c1cc(CN2CCN(CCN3CCOCC3)CC2)cc(-c2csc(-c3nc4ccccc4[nH]3)c2)c1 | 452
2 | COc1ccc(Nc2nccc(NCCNC(=O)Nc3ccccc3F)n2)cc1 | 1320
3 | C[C@H](NC(=O)c1c(CN2CCC(NC(=O)CC(C)(C)C)CC2)c(-c2cccs2)nc2ccccc12)C1CCCCC1 | 947
4 | O=C(Nc1ccc2c(c1)CCN2C1CCN(Cc2ccc(F)cc2Cl)C1)c1ccco1 (stereo not drawn) | 470
5 | CC(NCCc1cccc(Cl)c1)C(O)c1ccc(OCCCCCCOc2ccc(C(O)C(C)NCCc3cccc(Cl)c3)cc2)cc1 (stereo not drawn) | 399
6 | O=C(CN1CCC2(CCC1=O)CC(=O)c1ccccc1O2)NCCN1CCOCC1 (stereo not drawn) | 221
7 | O=C(Nc1ccc(NC2=NCCN2)cc1)c1ccc(C(=O)Nc2ccc(NC3=NCCN3)cc2)cc1 | 649
8 | CC(C)CCN1CCCN(Cc2cccc(NC(=O)c3cc4ccccc4s3)c2)CC1 | 917
9 | CCCCCCCN1CCC(CC(=O)Nc2ccnc3ccc(OC)cc23)C(CC)C1 (stereo not drawn) | 593
10 | CCCc1cc(Cc2cnc(N)nc2N)cc(CC)c1OC | 821
11 | CC(C)C(C(=O)n1ncc2c3c(N)nc(N)nc3ccc21)C(C)C | 648
12 | CC(C)N1CCN(CCCNc2c3ccccc3nc3ccccc23)CC1 | 233
13 | CO/C(=C\C=C\c1cc2cc(Cl)c(Cl)cc2[nH]1)C(=O)NC1CC2CCC(C1)N2C (stereo not drawn) | 1030
14 | Cc1nc(C)c(-c2ccc(Oc3ccc(Cl)c(Cl)c3)cc2)c(O)c1Cl | 106
15 | Cc1cc(N2CCCC2)nc(Nc2ccc(NC(=O)c3ccco3)cc2)n1 | 842
16 | Cc1n[nH]c(C)c1C1CCN(CC2CCC(NC(=O)/C=C/c3ccc(Cl)c(Cl)c3)CC2)CC1 (stereo not drawn) | 729
17 | O=C1CC(C(=O)Nc2cccc(-c3cccc(-c4nc5ccccc5[nH]4)c3)c2)c2ccccc2N1 (stereo not drawn) | 980
18 | Cn1cncc1C(=O)Nc1cccc(-c2csc(-c3nc4ccccc4[nH]3)c2)c1 | 447
19 | Fc1ccc2[nH]c(-c3cccc(-c4cccc(CNCc5cnn(-c6ccccc6)n5)c4)c3)nc2c1 | 971
20 | O=C(CC1NC(=O)c2ccccc21)Nc1ccc(-c2cccc(-c3nc4cc(C(F)(F)F)ccc4[nH]3)c2)cc1 (stereo not drawn) | 958
21 | CCS[C@@H]1O[C@H](COC(=O)c2ccccc2)[C@H](OC(=O)c2ccccc2)[C@H](OC(=O)c2ccccc2)[C@H]1OC(=O)c1ccccc1 | 808
22 | CCCCCN1C(=O)C(c2ccccc2)(c2ccccc2)N=C1N | 793
23 | COc1cc(C2CCN(CCCCNC(=O)c3ccc(NC(=O)c4cc(C(F)(F)F)cc(C(F)(F)F)c4)cc3)CC2)ccc1OC(C)C | 154
24 | Cc1nc(SCC(=O)N2CCCC2=O)c2c(C)c(C)sc2n1 | 170

Row | SMILES | XC50 [nM]
25 | COc1ccc(Nc2nc(N/N=C/c3cc(Br)ccc3O)nc(Nc3ccc([N+](=O)[O-])cc3)n2)cc1 | 222
26 | O=C(NCCCCN1CCC(O)(c2ccc(Cl)cc2)CC1)c1ccc(Br)cc1 | 1250
27 | CN1CCN(c2ncnc3ccc(NC(=O)Nc4ccc(Cl)c(Cl)c4)cc23)CC1 | 264
28 | COc1cc2c(cc1S(=O)(=O)c1ccc(COc3ccc(C(F)(F)F)cc3)cc1)CNCC2 | 746
29 | CCn1c(Sc2ccc(C#N)c([N+](=O)[O-])c2)nnc1-c1ccc(OC)cc1 | 805
30 | COc1cc(F)c2nccc([C@@H](O)CN3CCC(NCc4ccc5c(n4)NC(=O)CS5)C(F)C3)c2c1 (stereo partly drawn) | 1170
31 | O=C(NCCCCCN1CCC(c2c[nH]c3ccccc23)CC1)Nc1cccc(Cl)c1 | 1020
32 | N[C@@H](CCN1CCC(c2cccc(O)c2)CC1)Cc1ccc(F)c(F)c1 | 1110
33 | CC1CCCCN1CCCNC(=O)c1cccc(-c2cc3cc(Cl)c(Cl)cc3[nH]2)c1 (stereo not drawn) | 881
34 | CNC(=O)c1ccccc1Nc1nc(Nc2cccc(CS(C)(=O)=O)c2)ncc1C | 533
35 | CC[C@H]1CN2CC[C@@H]1C[C@H]2[C@H](O)c1cc(-c2cc(Cl)cc(Cl)c2)nc2ccc(OC)cc12 | 235
36 | Cc1cc(N(C)C2CCN(C)C2)nc(Nc2ccc(Cl)cc2)n1 (stereo not drawn) | 336
37 | CS(=O)(=O)N(c1ccccc1)c1cc(C(=O)N[C@@H](Cc2ccccc2)[C@H](O)CNC2CC2)cc(N2CCCC2=O)c1 | 305
38 | O=C(Nc1cccc(Oc2ccccc2)c1)N[C@H]1CCN(Cc2ccc(OCCCN3CCCCC3)cc2)C1 | 724
39 | CC(C)N1CCN(c2ccc(OCCCCN3CCN(c4cccc(Cl)c4Cl)CC3)c(C(F)(F)F)c2)CC1 | 815
40 | O=C(Nc1nc2cc(S(=O)(=O)NCCc3cccc(F)c3)ccc2n1CCCn1ccnc1)c1ccc(Cl)cc1 | 1270
41 | CCOC(=O)c1c(CN(CC)CC)n(-c2ccccc2)c2cc(Br)c(O)cc12 | 998
42 | CN(CCO)Cc1cccc(-c2ccc(NC(=O)c3cccc(C#N)c3)cc2)c1 | 796
43 | COc1cc(OC)cc(C(=O)Nc2ccc(Nc3nc(C)cc(N(C)C)n3)cc2)c1 | 646
44 | Nc1nc(N)c2c(ccc3nn(Cc4ccccc4)cc32)n1 | 215
45 | COc1ccc(CNCc2ccc(F)cc2)cc1-c1ccc(OC)c(S(=O)(=O)NCCN2CCCC2)c1 | 786
46 | CCCC(C)Nc1nc(C)cc(N[C@@H](CC(C)C)C(=O)NCc2cccc(F)c2)n1 (stereo partly drawn) | 1000
47 | O=C(Nc1cccc(-c2nn3ccccc3c2-c2ccnc(Nc3cccc(F)c3)n2)c1)c1c(F)ccc(F)c1Cl | 1140
48 | Fc1ccccc1COc1ccc(Nc2ncnc3ccc(-c4nnc(C(F)(F)F)o4)cc23)cc1Cl | 731
